The assay concerns the target T1, E. coli transketolase (TK), 6M variant scaffold (Escherichia coli, UniProt P27302, H100L/H192P/A282P/I365L/D469T/G506A/R520Q, form not given).
T1 construct: gene tktA; full-length, C-terminal His6 tag, expressed in E. coli from lab plasmid (pQR791 / pQR729), Ni-NTA purified; holo-TK with ThDP and Mg2+; non-natural residue by amber suppression in TK-5C
The experiment in a line: initial-rate kinetics by RP-HPLC, Michaelis-Menten fit. Format: biochemical. Particulars: TK-5C; residue 385 is non-natural p-cyano-L-phenylalanine; acceptor substrate varied, 50 mM pyruvate as donor, 2.4 mM ThDP, 9 mM MgCl2, 50 mM Tris-HCl pH 7.0, 21 °C; error is SEM. The source says: initial-rate kinetics by RP-HPLC, Michaelis-Menten fit on E. coli transketolase (TK), 6M variant scaffold

Each structure is given as a SMILES string.

T1 sequence (P27302 whole entry H100L/H192P/A282P/I365L/D469T/G506A/R520Q, form open): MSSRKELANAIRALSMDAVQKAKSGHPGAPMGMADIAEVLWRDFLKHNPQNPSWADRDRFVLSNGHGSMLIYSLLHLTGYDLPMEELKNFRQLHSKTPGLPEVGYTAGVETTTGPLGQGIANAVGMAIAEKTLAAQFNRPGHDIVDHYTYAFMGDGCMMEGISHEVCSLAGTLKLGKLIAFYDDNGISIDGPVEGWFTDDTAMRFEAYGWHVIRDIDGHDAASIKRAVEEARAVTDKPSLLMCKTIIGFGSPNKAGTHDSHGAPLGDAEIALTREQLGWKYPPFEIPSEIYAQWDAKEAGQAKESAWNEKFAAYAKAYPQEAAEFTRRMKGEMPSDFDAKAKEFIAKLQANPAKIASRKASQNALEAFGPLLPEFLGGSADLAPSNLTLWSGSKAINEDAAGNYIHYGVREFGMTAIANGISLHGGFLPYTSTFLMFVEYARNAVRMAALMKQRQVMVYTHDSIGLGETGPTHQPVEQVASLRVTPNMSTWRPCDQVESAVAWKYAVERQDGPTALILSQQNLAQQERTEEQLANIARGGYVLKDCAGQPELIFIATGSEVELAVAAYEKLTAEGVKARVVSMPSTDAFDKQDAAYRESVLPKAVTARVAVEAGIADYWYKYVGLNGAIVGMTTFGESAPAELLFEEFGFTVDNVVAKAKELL

`O=Cc1cccc(C(=O)O)c1` [3-FBA, 3-formylbenzoic acid]: the Km worked out at 95 mM.

What is called Km is the substrate concentration at which the rate is half of its maximum.
